# From patent publication US20240108740A1, “THERAPEUTIC COMPOSITIONS INCLUDING SPN10 AND USES THEREOF” (Stealth BioTherapeutics Inc., priority 2022, published 2024)
# Residues, ends and D or L forms follow the SMILES beside them.
# Key:
# Caco-2 cells = experiment: Example 12: 3NP-induced mitochondrial depolarization (TMRM, CLSM); format: cell-based, human; details: 3NP 10 mM, 4 hours
# Method: Caco-2 cells will be treated with 3NP (10 mM) alone or in the presence of peptide conjugates (0.1 μM); aromatic-cationic peptides (an equivalent molar dose of aromatic-cationic peptide based on the concentration of the aromatic-cationic peptide administered in the peptide conjugate treatment group); SPN10(s) (an equivalent molar dose of SPN10 based on the concentration of SPN10 administered in the peptide conjugate treatment group); or SPN10(s) in combination with aromatic-cationic peptides (e.g., an equivalent molar dose of SPN10 based on the concentration of SPN10 administered in the peptide conjugate treatment group and an equivalent molar dose of aromatic-cationic peptide based on the concentration of aromatic-cationic peptide administered in the peptide conjugate treatment group) for 4 hours, and then incubated with TMRM and examined by CLSM. It is expected that 3NP-treated cells will display reduced fluorescence compared to control cells, which indicates mitochondrial depolarization.
# Sprague-Dawley rats = experiment: Example 5: unilateral ureteral obstruction (UUO), 14 days; format: in vivo, rat
# Method: UUO will be induced in Sprague-Dawley rats. The rats will be treated with saline (i.p., n=6), peptide conjugates (1 mg/kg i.p., n=6), aromatic-cationic peptides (e.g., an equivalent molar dose of aromatic-cationic peptide based on the concentration of the aromatic-cationic peptide administered in the peptide conjugate treatment group), SPN10(s) (e.g., an equivalent molar dose of SPN10 based on the concentration of SPN10 administered in the peptide conjugate treatment group), or SPN10(s) in combination with aromatic-cationic peptides (e.g., an equivalent molar dose of SPN10 based on the concentration of SPN10 administered in the peptide conjugate treatment group and an equivalent molar dose of aromatic-cationic peptide based on the concentration of aromatic-cationic peptide administered in the peptide conjugate treatment group) one day prior to induction of UUO, and once daily for 14 days after UUO induction. Rats will be sacrificed and the kidneys removed, embedded in paraffin, and sectioned. The sections will be treated with an anti-CD36 polyclonal IgG (Santa Cruz, sc-9154; diluted 1:100 with blocking serum) at room temperature for 1.5 hours. The slides will then be incubated with the second antibody conjugated with biotin (anti-rabbit IgG-B1; ABC kit, PK-6101) at room temperature for 30 min. The slides will then be treated with avidin, developed with DAB and counterstained with 10% hematoxylin. The contralateral unobstructed kidney will serve as the control for each animal.
# Rats will then be sacrificed, kidneys removed, embedded in paraffin and sectioned. Slides will be incubated with anti-HNE rabbit IgG and a biotin-linked anti-rabbit IgG will be used as secondary antibody. The slides will be developed with DAB. Lipid peroxidation, which is increased by UUO, is anticipated to be reduced by treatment with peptide conjugates, aromatic-cationic peptides, or SPN10(s) (with or without aromatic-cationic peptides).
# Rats will then be sacrificed, kidneys removed, embedded in paraffin and sectioned. To quantify nuclei with fragmented DNA, TUNEL assay will be performed with in situ TUNEL kit. Slides will be developed with DAB and counterstained with 10% hematoxylin. […] It is anticipated that there will be a significant increase in apoptotic cells observed in the obstructed kidney from saline-treated animals when compared to the contralateral unobstructed control.
# Macrophage infiltration and interstitial fibrosis are anticipated to be prevented by treatment with peptide conjugates, aromatic-cationic peptides, or SPN10(s) (alone or in combination with aromatic-cationic peptides). Rats will be treated with either saline (n=6), peptide conjugates (1 mg/kg i.p., n=6), aromatic-cationic peptides (e.g., an equivalent molar dose of aromatic-cationic peptide based on the concentration of the aromatic-cationic peptide administered in the peptide conjugate treatment group), SPN10(s) (e.g., an equivalent molar dose of SPN10 based on the concentration of SPN10 administered in the peptide conjugate treatment group) or SPN10(s) in combination with aromatic-cationic peptides (e.g., an equivalent molar dose of SPN10 based on the concentration of SPN10 administered in the peptide conjugate treatment group and an equivalent molar dose of aromatic-cationic peptide based on the concentration of aromatic-cationic peptide administered in the peptide conjugate treatment group) one day prior to induction of UUO, and once daily for 14 days after UUO. Rats will then be sacrificed, the kidneys removed, embedded in paraffin and sectioned. Slides will be treated with monoclonal antibody for ED1 macrophage (1:75; Serotec). Horseradish peroxidase-linked rabbit anti-mouse secondary antibody (Dako) will be used for macrophage detection. Sections will then be counterstained with 10% hematoxylin. […]
# [1] = system: isolated mouse liver mitochondria; experiment: Example 11: mitochondrial respiration and membrane potential
# Method: Isolated mouse liver mitochondria will be incubated with 100 pM of SPN10(s) (with or without aromatic-cationic peptides) or peptide conjugates, and oxygen consumption will be measured. […] Mitochondrial membrane potential will be measured using TMRM. It is anticipated that addition of mitochondria will result in immediate quenching of the TMRM signal, which will be readily reversible by the addition of FCCP, indicating mitochondrial depolarization. It is anticipated that the addition of Ca^2+ (150 μM) will result in immediate mitochondrial depolarization followed by progressive loss of quenching indicative of MPT.
structure (smiles),measurement,setting,value
"N=C(N)NCCC[C@H](NC(=O)[C@@H](N)Cc1c[nH]c2ccccc12)C(=O)N[C@@H](Cc1c[nH]c2ccccc12)C(=O)N[C@@H](CCCCN)C(N)=O [SPN10, H-L-Trp-L-Arg-L-Trp-L-Lys-NH2] (H-WRWK-NH2)",mitochondrial depolarization caused by 3NP,Caco-2 cells,protect against mitochondrial depolarization
same,CD36 expression in tubular cells after UUO,Sprague-Dawley rats; anti-CD36 immunostaining,significant reduction in CD36 expression
same,HNE staining in obstructed kidney,Sprague-Dawley rats; compared to saline-treated rats,significantly less HNE staining
same,tubular dilation after UUO,Sprague-Dawley rats; one day prior to UUO and once daily for 14 days,Tubular dilation is also anticipated
same,interstitial fibrosis in obstructed kidney (Masson's trichrome),"Sprague-Dawley rats; rat, in vivo",significantly less fibrosis
same,lipid peroxidation in kidney after UUO,"Sprague-Dawley rats; rat, in vivo",reduced
same,macrophage infiltration in obstructed kidney (ED1),"Sprague-Dawley rats; rat, in vivo",significantly reduced
same,number of apoptotic cells in obstructed kidney (TUNEL),"Sprague-Dawley rats; rat, in vivo",significantly reduced
same,up-regulation of CD36 associated with tubular cell apoptosis,"Sprague-Dawley rats; rat, in vivo",significantly inhibited
same,respiratory ratio (state 3/state 4),[1]; 100 pM,6.2 versus 6.0
same,mitochondrial depolarization or MPT by the compound alone (TMRM),[1]; even at 200 μM,will not cause mitochondrial depolarization or MPT
